Counter-ions that a name gives are not always drawn. Like-named read-outs stand apart in the source and are kept apart here.
Key:
[1] = cytotoxic assay, nuclei count (Hoechst, HCS); type: cell-based; details: human, MDA-MB-231 cells (breast carcinoma); 48 h treatment; read-out: Cytotoxic studies IC50 MDA-MB-231
Rn_DYRK1A = molecular target: T1, Rn_DYRK1A (Rattus norvegicus, UniProt Q63470); assay: ADP-Glo kinase assay, primary screen; type: biochemical; details: n=2, read-out: % of residual activity Rn_DYRK1A
T1 construct: host or cells: bacteria

Hs_HASPIN = molecular target: T2, Hs_HASPIN (Homo sapiens, UniProt Q8TF76); assay: ADP-Glo kinase assay, primary screen; type: biochemical; details: n=2, read-out: % of residual activity Hs_HASPIN
T2 construct: host or cells: bacteria
T2 sequence (Q8TF76 1-798): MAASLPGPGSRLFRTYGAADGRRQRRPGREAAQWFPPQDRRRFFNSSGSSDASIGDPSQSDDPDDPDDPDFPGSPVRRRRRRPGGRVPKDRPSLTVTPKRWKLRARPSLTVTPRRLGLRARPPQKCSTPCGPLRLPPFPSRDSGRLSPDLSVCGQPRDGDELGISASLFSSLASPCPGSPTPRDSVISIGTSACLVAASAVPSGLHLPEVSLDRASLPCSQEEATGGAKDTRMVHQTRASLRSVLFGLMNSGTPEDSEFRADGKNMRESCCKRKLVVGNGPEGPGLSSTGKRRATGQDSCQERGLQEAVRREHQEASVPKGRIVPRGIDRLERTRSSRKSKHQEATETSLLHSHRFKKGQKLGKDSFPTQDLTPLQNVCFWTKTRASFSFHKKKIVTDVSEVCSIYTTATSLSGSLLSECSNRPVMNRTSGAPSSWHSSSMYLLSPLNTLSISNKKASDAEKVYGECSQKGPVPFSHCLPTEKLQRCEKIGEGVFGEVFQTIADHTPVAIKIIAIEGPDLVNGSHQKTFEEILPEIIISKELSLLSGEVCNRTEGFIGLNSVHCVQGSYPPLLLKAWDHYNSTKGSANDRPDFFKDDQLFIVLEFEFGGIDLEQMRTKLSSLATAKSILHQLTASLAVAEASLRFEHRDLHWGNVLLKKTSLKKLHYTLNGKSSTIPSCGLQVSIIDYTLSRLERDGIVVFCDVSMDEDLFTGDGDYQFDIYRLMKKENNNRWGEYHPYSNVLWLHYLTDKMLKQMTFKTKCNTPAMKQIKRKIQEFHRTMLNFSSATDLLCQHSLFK

HsDYRK1A = molecular target: T3, HsDYRK1A (Homo sapiens, UniProt Q13627); assay: ADP-Glo kinase assay; type: biochemical; details: for remaining activity at 1 µM / remaining activity at 10 µM: n=2, read-out: % of residual activity Hs_DYRK1A; for IC50: 10 µM ATP, duplicate
T3 construct: host or cells: Sf9 insect cells (baculovirus)

[2] = cytotoxic assay, nuclei count (Hoechst, HCS); type: cell-based; details: human, 48 h treatment
Procedure: (§1) To complete our study, we performed a cytotoxicity screening of the 15 molecules, investigating 7 representative cancer cell lines. The compound’s effect on cell viability was evaluated on Huh-7 (hepatocellular carcinoma), CaCo2, HCT-116 (colorectal adenocarcinoma), MCF7, MDA-MB231, MDA-MB468 (breast carcinoma), PC3 (prostate carcinoma) and NCI-H727 (lung carcinoid). Human skin fibroblasts were used as reference for non-cancerous cells. Roscovitine, Doxorubicin and Taxol were used as positive controls. The cells were treated for 48 h with 25 µM compounds and fixed in cooled 90% ethanol/5% acetic acid for 20 min. The nuclei were stained with Hoechst 33342 and counted using HCS technology.
(§2) HuH7, CaCo-2, MDA-MB-231, HCT116, PC3, MCF7 and NCI-H727 cancer cell lines were obtained from the ECACC collection (Porton Down, UK). Cells were grown at 37 °C, 5% CO2 in ECACC recommended media: DMEM for HuH7, MDA-MB-231 and fibroblast, EMEM for MCF7and CaCo-2, McCoy’s for HCT116 and RPMI for PC3 and NCI-H727. All culture media were supplemented with 10% of FBS, 1% of penicillin-streptomycin and 2 mM glutamine.
(§3) Chemicals were solubilized in DMSO at a concentration of 10 mM (stock solution) and diluted in culture medium to the desired final concentrations.
[…] Cells were plated in 96 wells plates (4000 cells/well). Twenty-four hours after seeding, cells were exposed to chemicals. After 48 h of treatment, cells were washed in PBS and fixed in cooled 90% ethanol/5% acetic acid for 20 min and the nuclei were stained with Hoechst 33342 (B2261 Sigma). Image acquisition and analysis were performed using a CellomicsArrayScan VTI/HCS Reader (ThermoScientific, Waltham, MA, USA). The survival percentages were calculated as the percentage of cell number after compound treatment over cell number after DMSO treatment.

Hs_PIM1 = molecular target: T4, Hs_PIM1 (Homo sapiens, UniProt P11309); assay: ADP-Glo kinase assay, primary screen; type: biochemical; details: n=2, read-out: % of residual activity Hs_PIM1
T4 construct: host or cells: Sf9 insect cells (baculovirus)
T4 sequence (P11309 whole entry): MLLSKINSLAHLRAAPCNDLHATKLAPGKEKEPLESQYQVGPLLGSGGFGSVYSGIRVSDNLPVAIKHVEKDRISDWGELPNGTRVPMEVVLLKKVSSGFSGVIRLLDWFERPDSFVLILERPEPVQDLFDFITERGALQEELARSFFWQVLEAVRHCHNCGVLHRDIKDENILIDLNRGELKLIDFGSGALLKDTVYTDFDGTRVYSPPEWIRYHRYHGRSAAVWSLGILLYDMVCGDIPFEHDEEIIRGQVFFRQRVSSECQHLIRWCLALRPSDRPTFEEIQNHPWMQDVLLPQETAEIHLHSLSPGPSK

Hs_GSK3β = molecular target: T5, Hs_GSK3β (Homo sapiens, UniProt P49841); assay: ADP-Glo kinase assay, primary screen; type: biochemical; details: n=2, read-out: % of residual activity Hs_GSK3β
T5 construct: host or cells: Sf9 insect cells (baculovirus)
T5 sequence (P49841 whole entry): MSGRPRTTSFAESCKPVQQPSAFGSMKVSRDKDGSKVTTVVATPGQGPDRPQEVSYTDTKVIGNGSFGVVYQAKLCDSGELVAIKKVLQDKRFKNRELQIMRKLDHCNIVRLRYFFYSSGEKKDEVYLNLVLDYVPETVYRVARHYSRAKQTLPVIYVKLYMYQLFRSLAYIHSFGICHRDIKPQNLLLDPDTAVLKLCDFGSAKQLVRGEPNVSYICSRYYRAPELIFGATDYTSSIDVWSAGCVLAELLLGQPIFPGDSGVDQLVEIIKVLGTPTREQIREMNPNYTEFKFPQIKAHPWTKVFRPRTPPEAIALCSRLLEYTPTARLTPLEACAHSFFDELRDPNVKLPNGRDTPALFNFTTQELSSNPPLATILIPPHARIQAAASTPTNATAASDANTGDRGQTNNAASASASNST

Hs_CDK5/p25 = molecular target: T6, Hs_CDK5/p25 (Homo sapiens, UniProt Q00535); assay: ADP-Glo kinase assay, primary screen; type: biochemical; details: n=2, read-out: % of residual activity Hs_CDK5/p25
T6 construct: host or cells: bacteria
T6 sequence (Q00535 whole entry): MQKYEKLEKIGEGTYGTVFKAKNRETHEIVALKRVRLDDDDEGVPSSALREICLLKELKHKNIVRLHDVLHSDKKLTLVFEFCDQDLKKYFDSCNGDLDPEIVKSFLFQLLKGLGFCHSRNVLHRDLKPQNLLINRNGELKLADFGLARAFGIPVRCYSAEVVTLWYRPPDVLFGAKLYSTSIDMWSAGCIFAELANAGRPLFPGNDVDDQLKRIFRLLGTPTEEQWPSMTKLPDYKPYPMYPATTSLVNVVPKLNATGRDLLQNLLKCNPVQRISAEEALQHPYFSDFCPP
T6 sequence (Q15078 99-307 partner limits assumed): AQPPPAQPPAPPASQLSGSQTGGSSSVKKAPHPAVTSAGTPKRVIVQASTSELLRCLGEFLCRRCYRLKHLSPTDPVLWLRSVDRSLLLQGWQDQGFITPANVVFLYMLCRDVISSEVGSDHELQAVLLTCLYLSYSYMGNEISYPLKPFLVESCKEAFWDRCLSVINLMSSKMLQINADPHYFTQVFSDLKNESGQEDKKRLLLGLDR

[3] = cytotoxic assay, nuclei count (Hoechst, HCS); type: cell-based; details: human, MCF7 cells (breast carcinoma); 48 h treatment; read-out: Cytotoxic studies IC50 MCF7
Procedure: as §1, §2, §3
(§4) The cytotoxic assay of chemical was performed at 25 µM. Cells were plated in 96 wells plates (4000 cells/well). Twenty-four hours after seeding, cells were exposed to chemicals. After 48 h of treatment, cells were washed in PBS and fixed in cooled 90% ethanol/5% acetic acid for 20 min and the nuclei were stained with Hoechst 33342 (B2261 Sigma). Image acquisition and analysis were performed using a CellomicsArrayScan VTI/HCS Reader (ThermoScientific, Waltham, MA, USA). The survival percentages were calculated as the percentage of cell number after compound treatment over cell number after DMSO treatment.

MmCLK1 = molecular target: T7, MmCLK1 (Mus musculus, UniProt P22518); assay: ADP-Glo kinase assay; type: biochemical; details: for remaining activity at 1 µM / remaining activity at 10 µM: n=2, read-out: % of residual activity Mm_CLK1; for IC50: mouse CLK1 orthologue, read-out: IC50 MmCLK1
T7 construct: host or cells: bacteria
T7 sequence (P22518 whole entry): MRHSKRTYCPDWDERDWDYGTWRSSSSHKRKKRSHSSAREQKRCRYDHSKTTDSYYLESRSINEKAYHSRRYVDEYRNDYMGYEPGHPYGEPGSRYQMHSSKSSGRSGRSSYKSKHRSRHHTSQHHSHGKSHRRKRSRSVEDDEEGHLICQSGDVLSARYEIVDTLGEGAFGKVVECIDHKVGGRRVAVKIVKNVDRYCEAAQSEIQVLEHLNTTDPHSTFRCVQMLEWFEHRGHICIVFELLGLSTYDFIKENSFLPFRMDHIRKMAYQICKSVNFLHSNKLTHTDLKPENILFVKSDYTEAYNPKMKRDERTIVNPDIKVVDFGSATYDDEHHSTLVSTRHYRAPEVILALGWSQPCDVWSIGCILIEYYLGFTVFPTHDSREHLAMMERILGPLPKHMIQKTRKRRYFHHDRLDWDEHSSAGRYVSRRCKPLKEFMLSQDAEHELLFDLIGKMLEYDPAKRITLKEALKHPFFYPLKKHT

Hs_CDK9/CyclinT = molecular target: T8, Hs_CDK9/CyclinT (Homo sapiens, UniProt P50750); assay: ADP-Glo kinase assay, primary screen; type: biochemical; details: n=2, read-out: % of residual activity Hs_CDK9/CyclinT
T8 construct: host or cells: Sf9 insect cells (baculovirus)
T8 sequence (P50750 whole entry): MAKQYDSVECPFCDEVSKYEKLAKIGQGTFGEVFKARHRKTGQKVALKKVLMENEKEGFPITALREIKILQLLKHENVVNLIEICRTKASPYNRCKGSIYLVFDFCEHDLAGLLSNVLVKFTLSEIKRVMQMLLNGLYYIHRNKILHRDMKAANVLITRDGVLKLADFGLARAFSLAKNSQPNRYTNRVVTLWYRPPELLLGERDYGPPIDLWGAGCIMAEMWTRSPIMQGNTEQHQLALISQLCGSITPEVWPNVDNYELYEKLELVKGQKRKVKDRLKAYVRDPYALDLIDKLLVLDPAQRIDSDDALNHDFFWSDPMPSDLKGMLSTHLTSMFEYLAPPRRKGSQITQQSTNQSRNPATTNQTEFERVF
T8 sequence (O60563 whole entry partner): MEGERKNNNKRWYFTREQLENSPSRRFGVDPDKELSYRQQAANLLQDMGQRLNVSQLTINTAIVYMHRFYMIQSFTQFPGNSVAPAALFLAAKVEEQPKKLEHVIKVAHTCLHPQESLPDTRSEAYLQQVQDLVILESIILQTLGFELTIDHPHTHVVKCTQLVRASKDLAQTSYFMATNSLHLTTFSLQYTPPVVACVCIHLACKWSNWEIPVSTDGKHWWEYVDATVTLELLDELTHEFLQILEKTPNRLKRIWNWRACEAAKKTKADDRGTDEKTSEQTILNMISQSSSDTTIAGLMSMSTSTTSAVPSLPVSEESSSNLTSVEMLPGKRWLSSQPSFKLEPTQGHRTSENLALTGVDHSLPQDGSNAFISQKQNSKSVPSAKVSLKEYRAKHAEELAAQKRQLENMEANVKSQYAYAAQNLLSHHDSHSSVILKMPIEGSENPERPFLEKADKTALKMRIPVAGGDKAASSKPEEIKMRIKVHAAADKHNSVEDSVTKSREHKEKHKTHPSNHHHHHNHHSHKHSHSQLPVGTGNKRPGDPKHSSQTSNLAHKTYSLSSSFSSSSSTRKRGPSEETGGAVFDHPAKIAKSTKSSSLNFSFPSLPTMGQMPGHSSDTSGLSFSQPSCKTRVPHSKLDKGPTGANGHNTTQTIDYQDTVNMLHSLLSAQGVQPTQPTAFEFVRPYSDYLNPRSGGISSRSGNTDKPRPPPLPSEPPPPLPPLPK

[4] = cytotoxic assay, nuclei count (Hoechst, HCS); type: cell-based; details: human, HuH7 cells (hepatocellular carcinoma); 48 h treatment; read-out: Cytotoxic studies IC50 HuH7
[5] = cytotoxic assay, nuclei count (Hoechst, HCS); type: cell-based; details: human, Caco-2 cells (colorectal adenocarcinoma); 48 h treatment; read-out: Cytotoxic studies IC50 Caco2
[6] = cytotoxic assay, nuclei count (Hoechst, HCS); type: cell-based, human; details: human, human skin fibroblasts (non-cancerous reference cells); 48 h treatment; some cells add low/moderate/high amplitude; read-out: Cytotoxic studies IC50 Fibroblasts
Procedure: as §1, §2, §3, §4

Hs_CK1ε = molecular target: T9, Hs_CK1ε (Homo sapiens, UniProt P49674); assay: ADP-Glo kinase assay, primary screen; type: biochemical; details: n=2, read-out: % of residual activity Hs_CK1ε
T9 construct: host or cells: Sf9 insect cells (baculovirus)
T9 sequence (P49674 whole entry): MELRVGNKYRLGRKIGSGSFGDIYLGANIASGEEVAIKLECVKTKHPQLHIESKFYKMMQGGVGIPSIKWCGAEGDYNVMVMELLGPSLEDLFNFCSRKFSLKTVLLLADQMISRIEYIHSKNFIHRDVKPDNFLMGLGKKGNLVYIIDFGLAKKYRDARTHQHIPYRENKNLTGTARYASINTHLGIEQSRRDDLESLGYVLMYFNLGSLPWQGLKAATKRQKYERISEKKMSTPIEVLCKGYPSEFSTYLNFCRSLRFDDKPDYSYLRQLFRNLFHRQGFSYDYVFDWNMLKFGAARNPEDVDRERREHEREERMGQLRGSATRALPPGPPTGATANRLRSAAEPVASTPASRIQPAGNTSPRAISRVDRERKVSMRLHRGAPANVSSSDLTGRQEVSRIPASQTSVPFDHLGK

[7] = HCT116 cells (colorectal adenocarcinoma), read-out: Cytotoxic studies IC50 HCT116
[8] = MDA-MB-468 cells (breast carcinoma), read-out: Cytotoxic studies IC50 MDA-MB-468

SMILES	IC50 at 48 h [1] [µM]	remaining activity at 1 µM (Rn_DYRK1A) [%]	remaining activity at 10 µM (Rn_DYRK1A) [%]	remaining activity at 1 µM (Hs_HASPIN) [%]	remaining activity at 10 µM (Hs_HASPIN) [%]	remaining activity at 1 µM (HsDYRK1A) [%]	IC50 (HsDYRK1A) [µM]	remaining activity at 10 µM (HsDYRK1A) [%]	IC50 at 48 h [2, 7] [µM]	IC50 at 48 h [2, 8] [µM]	remaining activity at 1 µM (Hs_PIM1) [%]	remaining activity at 10 µM (Hs_PIM1) [%]	remaining activity at 1 µM (Hs_GSK3β) [%]	remaining activity at 10 µM (Hs_GSK3β) [%]	remaining activity at 1 µM (Hs_CDK5/p25) [%]	remaining activity at 10 µM (Hs_CDK5/p25) [%]	IC50 at 48 h [3] [µM]	remaining activity at 1 µM (MmCLK1) [%]	remaining activity at 10 µM (MmCLK1) [%]	IC50 (MmCLK1) [nM]	also measured
N[C@H]1CC[C@H](n2cc(COc3cccc4cnc(Nc5cccc(Cl)c5)nc34)nn2)CC1 [19a, 8-((1-((trans)-4-Aminocyclohexyl)-1H-1,2,3-triazol-4-yl)methoxy)-N-(3-chlorophenyl)quinazolin-2-amine hydrochloride]	6	78	64	70	92	84	3.72	34	7	7	62	40	50	23	≥ 100	30	11	20	10	200	remaining activity at 1 µM (Hs_CDK9/CyclinT): 65%; remaining activity at 10 µM (Hs_CDK9/CyclinT): 30%; IC50 at 48 h [4]: 8 µM; IC50 at 48 h [5]: 11 µM; IC50 at 48 h [6]: 1300 nM; remaining activity at 1 µM (Hs_CK1ε): 73%; remaining activity at 10 µM (Hs_CK1ε): 22%
N[C@H]1CC[C@H](n2cc(COc3cccc4cnc(Nc5cc(Cl)cc(Cl)c5)nc34)nn2)CC1 [19b, 8-((1-((trans)-4-Aminocyclohexyl)-1H-1,2,3-triazol-4-yl)methoxy)-N-(3,5-dichlorophenyl)quinazolin-2-amine hydrochloride]	2	92	92	95	90	≥ 100	5.44	55	4	1.3	79	44	44	15	≥ 100	42	3	12	7	210	remaining activity at 1 µM (Hs_CDK9/CyclinT): 91%; remaining activity at 10 µM (Hs_CDK9/CyclinT): 42%; IC50 at 48 h [4]: 14 µM; IC50 at 48 h [5]: 3 µM; IC50 at 48 h [6]: 3000 nM; remaining activity at 1 µM (Hs_CK1ε): 63%; remaining activity at 10 µM (Hs_CK1ε): 20%

Reference: paper PMC9571063 (Molecules, 2022)
